58 compounds from BindingDB's records for doi:10.7270/Q2PR7TCX (The Scripps Research Institute Molecular Screening Center, 2007) can be followed below.

Structures can show the parent of a compound that is named as a salt.

The target of one assay is Steroidogenic factor 1 (Homo sapiens, UniProt Q13285). Description: inhibition of SF-1 LBD-driven luciferase – cell-based, CHO-K1, Gal4-SF-1 LBD, luciferase luminescence, counter-screen for RORA inhibitor project, dose response (AID 611).
Sequence of Steroidogenic factor 1 (Q13285 whole entry, the tested form may be a part): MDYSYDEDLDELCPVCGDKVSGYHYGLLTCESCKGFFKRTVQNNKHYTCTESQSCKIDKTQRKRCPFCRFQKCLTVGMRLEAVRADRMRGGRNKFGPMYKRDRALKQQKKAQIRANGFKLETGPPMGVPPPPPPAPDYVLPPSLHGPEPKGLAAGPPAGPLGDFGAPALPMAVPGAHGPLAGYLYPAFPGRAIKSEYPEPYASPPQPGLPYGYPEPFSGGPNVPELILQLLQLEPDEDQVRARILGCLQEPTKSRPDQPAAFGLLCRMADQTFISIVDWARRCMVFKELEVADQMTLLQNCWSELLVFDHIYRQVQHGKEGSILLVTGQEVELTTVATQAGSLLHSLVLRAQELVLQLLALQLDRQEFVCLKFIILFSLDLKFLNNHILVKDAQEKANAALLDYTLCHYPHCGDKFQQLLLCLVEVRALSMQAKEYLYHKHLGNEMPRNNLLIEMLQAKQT
Conditions: not given
As for `Fc1ccc(-c2nnc(NC3=NCCCCC3)o2)cc1` [5-(4-fluorophenyl)-N-(3,4,5,6-tetrahydro-2H-azepin-7-yl)-1,3,4-oxadiazol-2-amine], the IC50 was greater than 3.67 µM.

`Cc1cc(NC(=O)c2ccc3c(c2)OCCO3)no1` [MLS000064124] gave an IC50 of 9.29 µM.

Compound `CCN(C1CCCCC1)S(=O)(=O)c1ccc(S(=O)(=O)NCc2ccncc2)cc1` [4-N-cyclohexyl-4-N-ethyl-1-N-(pyridin-4-ylmethyl)benzene-1,4-disulfonamide] showed an IC50 of 9.51 µM.

The compound `Clc1cccc(-c2nc(-c3ccccn3)no2)c1` [2-[5-(3-Chloro-phenyl)-[1,2,4]oxadiazol-3-yl]-pyridine] had an IC50 of 5.41 µM.

On to `O=C(O)CCCCCn1c(O)csc1=S` [6-(4-keto-2-thioxo-thiazolidin-3-yl)hexanoic acid], for which the IC50 is greater than 99 µM.

`O=C(OC1CCOC1=O)c1ccc(-c2nc3ccccc3s2)s1` (stereo not drawn) [(2-oxidanylideneoxolan-3-yl) 5-(1,3-benzothiazol-2-yl)thiophene-2-carboxylate] came in with an IC50 of 5.18 µM.

On to `COc1cccc(NC(=O)CSc2nnc(-c3cc(C)n(-c4ccccc4)c3C)o2)c1` [2-[[5-(2,5-dimethyl-1-phenyl-3-pyrrolyl)-1,3,4-oxadiazol-2-yl]thio]-N-(3-methoxyphenyl)acetamide], for which the midpoint of inhibition, the IC50, lay at 3.76 µM.

In turn, `CN=c1scc(C)n1N=Cc1ccc(O)cc1O` [(4E)-4-[[(4-methyl-2-methylimino-1,3-thiazol-3-yl)amino]methylidene]-3-oxidanyl-cyclohexa-2,5-dien-1-one] registered a half-maximal inhibitory concentration (IC50) of 1.94 µM.

Compound `O=C(c1ccccc1)C(CCC(CN1CCOCC1)C(=O)c1ccccc1)CN1CCOCC1` (stereo not drawn) [2,5-bis(4-morpholinylmethyl)-1,6-diphenylhexane-1,6-dione;hydrochloride] yielded an IC50 of 18 µM.

The compound `COc1ccc(OC)c(NC(=O)CSc2nnnn2-c2ccc3c(c2)OCO3)c1` [2-(1-Benzo[1,3]dioxol-5-yl-1H-tetrazol-5-ylsulfanyl)-N-(2,5-dimethoxy-phenyl)-acetamide] gave a half-inhibitory concentration (IC50) of 2.69 µM.

Compound `Cc1nnc(SC(=O)N2c3ccccc3Sc3ccccc32)s1` [10-phenothiazinecarbothioic acid S-(5-methyl-1,3,4-thiadiazol-2-yl) ester] came in with an IC50 of 6.07 µM.

For the compound `CCCN1C=CC(=C2C(=O)c3ccccc3C2=O)C=C1` [2-(1-propyl-4-pyridinylidene)indene-1,3-dione], the IC50 was 0.431 µM.

With `c1c2c(cc3sc(N4CCCCC4)nc13)OCCO2` [2-(1-piperidinyl)-6,7-dihydro-[1,4]dioxino[2,3-f][1,3]benzothiazole], the IC50 was greater than 3.67 µM.

Take `COc1ccc(C=Nn2nnc3ccccc32)cc1` [MLS000043825]: the midpoint of inhibition, the IC50, lay at 4 µM.

Turning to `Oc1c(CN2CCN(c3ccccn3)CC2)cc(Cl)c2cccnc12` [5-chloranyl-7-[(4-pyridin-2-ylpiperazin-1-yl)methyl]quinolin-8-ol], half-maximal inhibition (IC50) required 6.65 µM.

Compound `CCOc1ccc(-c2cc(CCCC(=O)NCCCOC)no2)cc1` [4-[5-(4-ethoxyphenyl)-1,2-oxazol-3-yl]-N-(3-methoxypropyl)butanamide] came in with a 50% inhibitory concentration (IC50) of 2.64 µM.

For the compound `O=C(Nc1nc2cc3c(cc2s1)OCO3)C1=COCCO1` [MLS000103798], inhibition was half-maximal at 4.16 µM (IC50).

As to `Clc1ccc(OCCN2CCN(c3ncnc4sccc34)CC2)cc1` [4-[4-[2-(4-chloranylphenoxy)ethyl]piperazin-1-yl]thieno[2,3-d]pyrimidine], inhibition was half-maximal at 1.44 µM (IC50).

Compound `C=CS(=O)(=O)c1ccc(Oc2ccc(S(=O)(=O)C=C)cc2)cc1` [1-ethenylsulfonyl-4-(4-ethenylsulfonylphenoxy)benzene] had a half-inhibitory concentration (IC50) of 5.29 µM.

The compound `COc1ccc(-c2nc(CSCC(=O)NCc3ccco3)c(C)o2)cc1` [MLS000089353] returned an IC50 of 7.05 µM.

For the compound `CCOc1ccc(-c2cc(CCCC(=O)NCc3ccco3)no2)cc1` [4-[5-(4-ethoxyphenyl)-1,2-oxazol-3-yl]-N-(furan-2-ylmethyl)butanamide], the half-maximal inhibitory concentration (IC50) is greater than 11 µM.

With `O=NC1c2cc(S(=O)(=O)N3CCCCC3)ccc2-c2ccc(S(=O)(=O)N3CCCCC3)cc21` [2,7-Bis-(piperidine-1-sulfonyl)-fluoren-9-one oxime], half-maximal inhibition (IC50) required 2.14 µM.

In turn, `CN1CCN(C(=O)COc2ccc(-c3nc4ccccc4s3)cc2)CC1` [2-[4-(1,3-benzothiazol-2-yl)phenoxy]-1-(4-methyl-1-piperazinyl)ethanone] registered a half-maximal inhibitory concentration (IC50) of 5.28 µM.

The compound `COc1ccccc1-n1nnnc1S(=O)(=O)Cc1ccc(Cl)cc1` [5-(4-chlorobenzyl)sulfonyl-1-(2-methoxyphenyl)tetrazole] yielded a half-inhibitory concentration (IC50) of 7.09 µM.

On to `O=C(NC1=NCCS1)C1COc2ccccc2O1` (stereo not drawn) [MLS000056062], for which half-maximal inhibition (IC50) required 4.65 µM.

Regarding `CCOc1ccc(OCc2cccc(C(=O)N3CCOCC3)c2)cc1` [4-{3-[(4-ethoxyphenoxy)methyl]benzoyl}morpholine], the IC50 stood at 4.35 µM.

In the case of `COc1ccc(-c2cc3nc4n(c(=O)c3s2)CCOC4)cc1` [2-(4-methoxyphenyl)-7,8-dihydro-5H-thieno[1,2]pyrimido[4,5-a][1,4]oxazin-10-one], it took 7.8 µM to reach half-maximal inhibition (IC50).

In turn, `Cc1oc2nc(SCC(=O)NCc3cccnc3)nc(N)c2c1C` [2-(4-amino-5,6-dimethylfuro[2,3-d]pyrimidin-2-yl)sulfanyl-N-(pyridin-3-ylmethyl)acetamide] gave a concentration for half-maximal inhibition (IC50) greater than 99 µM.

Consider `O=c1cc(N2CCN(c3cccc(Cl)c3)CC2)[nH]c(=O)n1C1CCCCC1` [MLS000094380], for which the IC50 was found to be 0.44 µM.

`CCOC(=O)C1CCN(c2ncnc3c2cnn3-c2ccc(Cl)cc2)CC1` [1-[1-(4-chlorophenyl)-4-pyrazolo[3,4-d]pyrimidinyl]-4-piperidinecarboxylic acid ethyl ester]: half-maximal inhibition (IC50) required 5.75 µM.

As to `O=S1(=O)C=C(Sc2nnc(-c3ccccc3)o2)c2ccccc21`, it took 6.04 µM to reach half-maximal inhibition (IC50).

`CCC(NC(=O)Nc1nnc(C(F)(F)F)s1)(C(F)(F)F)C(F)(F)F` yielded an IC50 of 2.74 µM.

For the compound `CCOc1cc(C(=O)CSc2nnc(CNc3ccc(Cl)cc3)o2)ccc1NC(=O)CC` [MLS000032332], the IC50 stood at 7.64 µM.

In turn, `O=C(Nc1ccc(N2CCOCC2)cc1)c1cnsn1` [MLS000063695] yielded an IC50 of 6.57 µM.

With `Cc1ccc(-c2nc3nc4ccccc4nc3n2Cc2ccco2)cc1` [3-(2-furanylmethyl)-2-(4-methylphenyl)imidazo[4,5-b]quinoxaline], the half-inhibitory concentration (IC50) is greater than 33 µM.

The compound `Cc1ccc(-c2nc(-c3ccccn3)no2)cc1Cl` [5-(3-chloranyl-4-methyl-phenyl)-3-pyridin-2-yl-1,2,4-oxadiazole] returned a half-maximal inhibitory concentration (IC50) of 2.22 µM.

As to `CCCCS(=O)(=O)/C=C\C=C/S(=O)(=O)CCCC` [SMR000020833], half-maximal inhibition (IC50) required 1.64 µM.

With `C=CCOc1nc2c(c(=O)n(C)c(=O)n2C)n1Cc1ccc(Cl)cc1` [7-[(4-chlorophenyl)methyl]-1,3-dimethyl-8-prop-2-enoxy-purine-2,6-dione], the half-maximal inhibitory concentration (IC50) is greater than 11 µM.

For the compound `c1ccc(-c2nc(N3CCCCCC3)c3ccccc3n2)nc1` [SMR000046752], half-maximal inhibition (IC50) required 4.13 µM.

The compound `COc1ccc(C(=O)Nn2c(SCC(=O)NCc3ccco3)nc3ccccc3c2=O)cc1` [MLS000097349] gave a half-inhibitory concentration (IC50) of 5.3 µM.

`Cn1nc(CC(=O)Nc2ccc3c(c2)OCCO3)c2ccccc2c1=O` [MLS000047020] registered an IC50 of 6.3 µM.

The compound `CN(C)c1ccc(NC(=S)c2ccccn2)cc1` [MLS000111989] gave an IC50 of 3.04 µM.

The compound `Cc1cc(C=Nn2cnnc2)c(C)n1-c1ccc(OCc2ccc(F)cc2)cc1` [MLS000112167] displayed an IC50 of 3.4 µM.

For `CCCS(=O)(=O)c1nnnn1-c1cccc(OC)c1` [1-(3-methoxyphenyl)-5-(propylsulfonyl)-1H-tetrazole], the IC50 is 7.63 µM.

As for `COc1cc(CN=O)ccc1OCc1ccc(C(=O)O)cc1` [4-[[4-(hydroximinomethyl)-2-methoxy-phenoxy]methyl]benzoic acid], the IC50 was determined as 0.675 µM.

In the case of `COc1ccc(CCNc2nnc(Sc3nnnn3-c3ccccc3)s2)cc1OC` [MLS000056567], the IC50 is 7.21 µM.

The compound `Cc1ccc(NC(=O)Cc2nn(C)c(=O)c3ccccc23)cc1F` [MLS000047015] registered an IC50 of 3.9 µM.

Compound `COc1cc(OC)cc(-c2cc3nc(C)c(CCC(=O)O)c(C)n3n2)c1` [3-[2-(3,5-dimethoxyphenyl)-5,7-dimethyl-6-pyrazolo[1,5-a]pyrimidinyl]propanoic acid] came in with an IC50 of 0.74 µM.

Turning to `CCc1ccc(-c2nnn(CCC(=O)OC)n2)cc1`, inhibition was half-maximal at 6.34 µM (IC50).

In the case of `c1ccc(-c2noc(-c3ccc4ccccc4c3)n2)nc1` [2-[5-(2-naphthyl)-1,2,4-oxadiazol-3-yl]pyridine], half-maximal inhibition (IC50) required 0.867 µM.

As to `CC(=O)c1sc(NC(=O)C2(F)C(F)(F)C(F)(F)C(F)(F)C(F)(F)C2(F)F)nc1C` [MLS000040071], the IC50 amounted to 6.77 µM.

The same assay, now with this note: inactive by the depositor's call.
As for `CC1(C)COCN1S(=O)(=O)c1ccc(C(=O)Nc2nnc(-c3ccc(Cl)s3)o2)cc1` [MLS000086346], the IC50 was determined as 12.2 µM.

The compound `O=C1c2ccccc2S(=O)(=O)N1Cc1nc2ccccc2s1` [2-(1,3-benzothiazol-2-ylmethyl)-1,1-bis(oxidanylidene)-1,2-benzothiazol-3-one] gave an IC50 of 10.6 µM.

Compound `Cc1cc(C)n2nc(SCC(=O)c3cc(C)n(-c4cc(C)on4)c3C)nc2n1` [1-[2,5-dimethyl-1-(5-methyl-1,2-oxazol-3-yl)pyrrol-3-yl]-2-[(5,7-dimethyl-[1,2,4]triazolo[1,5-a]pyrimidin-2-yl)sulfanyl]ethanone] showed a 50% inhibitory concentration (IC50) of 16.8 µM.

For the compound `Cc1cccc2cc3c(nc12)S/C(=N\CC1CCCO1)N(Cc1ccco1)C3` (stereo not drawn) [3-(2-furanylmethyl)-9-methyl-N-(2-oxolanylmethyl)-4H-[1,3]thiazino[6,5-b]quinolin-2-imine], 63.7 µM corresponded to half-maximal inhibition (IC50).

Compound `Cc1nc(NC(C)c2ccccc2)c2oc3ccccc3c2n1` (stereo not drawn) [(2-methylbenzofuro[3,2-d]pyrimidin-4-yl)-(1-phenylethyl)amine] registered an IC50 of 23.1 µM.

For the compound `CCCCN(CCCC)S(=O)(=O)c1ccc(C(=O)Nc2nnc(CSC)o2)cc1` [4-(dibutylsulfamoyl)-N-[5-(methylsulfanylmethyl)-1,3,4-oxadiazol-2-yl]benzamide], the midpoint of inhibition, the IC50, lay at 24.4 µM.

On to `Cc1noc(C)c1S(=O)(=O)Nc1ccc(C(=O)N2CCN(c3ccc(Cl)cc3)CC2)cc1` [MLS000045033], for which the IC50 was 21.1 µM.
